Data: paper PMC7587356, “High-Throughput Screening for Inhibitors of the SARS-CoV-2 Protease Using a FRET-Biosensor” (Molecules, 2020)
Structures can show the parent of a compound that is named as a salt. Where two headings read alike, the source gives them in different places.

Target: SARS-CoV-2 3CLpro (Severe acute respiratory syndrome coronavirus 2, UniProt P0DTD1)
Assay: biochemical
Format: biochemical
Parameters: Replicate_1 / Replicate_2 / mean / mean (LOPAC_screen_w_protease): unit not given here
Conditions: for inhibition at 5 µM: 4 h
[1] = sheet LOPAC_screen_w_protease, primary screen of LOPAC1280 at 5 µM with protease, mean of the two replicates
[2] = sheet LOPAC_screen_w_protease, primary screen of LOPAC1280 at 5 µM with protease, replicate 1
[3] = sheet LOPAC_screen_w_protease, primary screen of LOPAC1280 at 5 µM with protease, replicate 2
[4] = sheet LOPAC_screen_w_protease, primary screen of LOPAC1280 at 5 µM with protease, mean of the two replicates, read-out: mean
[5] = sheet LOPAC_screen_w_protease, primary screen of LOPAC1280 at 5 µM with protease, replicate 1, read-out: Replicate_1
[6] = sheet LOPAC_screen_w_protease, primary screen of LOPAC1280 at 5 µM with protease, replicate 2, read-out: Replicate_2
[7] = LOPAC1280 primary screen with protease, 5 µM compound, mean of two replicates
[8] = LOPAC1280 primary screen with protease, 5 µM compound, replicate 1
[9] = LOPAC1280 primary screen with protease, 5 µM compound, replicate 2
[10] = LOPAC1280 primary screen with protease, 5 µM compound, mean of the two replicates
[11] = sheet LOPAC_screen_w_protease, LOPAC1280 primary screen at 5 µM, with protease, mean of the two replicates
[12] = sheet LOPAC_screen_w_protease, LOPAC1280 primary screen at 5 µM, with protease, replicate 2
[13] = sheet LOPAC_screen_w_protease, LOPAC1280 at 5 µM, mean of two replicates
[14] = sheet LOPAC_screen_w_protease, LOPAC1280 at 5 µM, replicate 1
[15] = sheet LOPAC_screen_w_protease, LOPAC1280 at 5 µM, replicate 2
[16] = sheet LOPAC_screen_w_protease, primary screen with protease, compound at 5 µM, mean of two replicates
[17] = sheet LOPAC_screen_w_protease, primary screen with protease, compound at 5 µM, replicate 1
[18] = sheet LOPAC_screen_w_protease, primary screen with protease, compound at 5 µM, replicate 2
[19] = sheet LOPAC_screen_w_protease, primary screen with protease, compound at 5 µM, mean of two replicates, read-out: mean
[20] = sheet LOPAC_screen_w_protease, primary screen with protease, compound at 5 µM, replicate 1, read-out: Replicate_1
[21] = sheet LOPAC_screen_w_protease, primary screen with protease, compound at 5 µM, replicate 2, read-out: Replicate_2
[22] = sheet LOPAC_screen_w_protease, LOPAC1280 primary screen at 5 µM, with protease, replicate 1
[23] = sheet LOPAC_screen_w_protease, primary screen with protease, mean of two replicates, read-out: mean
[24] = sheet LOPAC_screen_w_protease, primary screen with protease, replicate 1, read-out: Replicate_1
[25] = sheet LOPAC_screen_w_protease, primary screen with protease, replicate 2, read-out: Replicate_2
[26] = LOPAC1280 primary screen with protease, 5 µM compound, replicate 1, read-out: Replicate_1 (LOPAC_screen_w_protease)
[27] = LOPAC1280 primary screen with protease, 5 µM compound, replicate 2, read-out: Replicate_2 (LOPAC_screen_w_protease)

`Cl.NCC(O)c1ccc(O)cc1` (racemic) [(±)-Octopamine hydrochloride] gave a mean [1] of 4.023, a Replicate_1 [2] of 4.835 and a Replicate_2 [3] of 3.21.

`Cl.O=S(=O)(c1cccc2c(I)cccc12)N1CCCNCC1` [ML-7] was tested, and the Replicate_1 was 2.299, the Replicate_2 was 4.928 and the mean was 3.614.

With `CC(C)N(CCC(C(N)=O)(c1ccccc1)c1ccccn1)C(C)C` (centres unmarked) [Disopyramide] the inhibition at 5 µM [4] was 3.48%, the inhibition at 5 µM [5] was 4.56% and the inhibition at 5 µM [6] was 2.4%.

`CCCCc1oc2ccccc2c1C(=O)c1cc(I)c(OCCN(CC)CC)c(I)c1` [Amiodarone hydrochloride] was tested, and the inhibition at 5 µM (read-out: Replicate_1) was 2.09%, the inhibition at 5 µM (read-out: Replicate_2) was 4.04% and the inhibition at 5 µM (read-out: mean) was 3.06%.

For `Cl.Cl.NCCC(=O)NCCc1c[nH]cn1` [Carcinine dihydrochloride], the “mean (LOPAC_screen_w_protease)” value [7] was 1.47, the “Replicate_1 (LOPAC_screen_w_protease)” value [8] was -0.04434 and the “Replicate_2 (LOPAC_screen_w_protease)” value [9] was 2.985.

For `Oc1cccc2c(O)nccc12` [1,5-Isoquinolinediol], the “mean (LOPAC_screen_w_protease)” value [10] was 2.037, the “Replicate_1 (LOPAC_screen_w_protease)” value [8] was 1.193 and the “Replicate_2 (LOPAC_screen_w_protease)” value [9] was 2.882.

For `COc1ccc2c(c1O)-c1cccc3c1[C@@H](C2)N(C)CC3.Cl` [R(-)-Apocodeine hydrochloride], the mean (sheet LOPAC_screen_w_protease, LOPAC1280 primary screen with protease, 5 µM compound, mean of the two replicates) was 6.058, the Replicate_1 (sheet LOPAC_screen_w_protease, LOPAC1280 primary screen with protease, 5 µM compound, replicate 1) was 6.597 and the Replicate_2 (sheet LOPAC_screen_w_protease, LOPAC1280 primary screen with protease, 5 µM compound, replicate 2) was 5.52.

In the case of `CN(C)CCOC(=O)COc1ccc(Cl)cc1` [Centrophenoxine hydrochloride], the inhibition at 5 µM (sheet LOPAC_screen_w_protease, LOPAC1280 at 5 µM, mean of two replicates, read-out: mean) is reported as 1.27%, the inhibition at 5 µM (sheet LOPAC_screen_w_protease, LOPAC1280 at 5 µM, replicate 1, read-out: Replicate_1) is reported as 1.82% and the inhibition at 5 µM (sheet LOPAC_screen_w_protease, LOPAC1280 at 5 µM, replicate 2, read-out: Replicate_2) is reported as 0.724%.

For `C/C=C1\C(=O)C[C@H]2[C@@H]3CCC4=CC(=O)CC[C@]4(C)[C@H]3CC[C@]12C` [(Z)-Gugglesterone], the mean [1] was 3.352, the Replicate_1 [2] was 5.164 and the Replicate_2 [3] was 1.54.

With `NCC(O)(CS(=O)(=O)O)c1ccc(Cl)cc1` (centres unmarked) [2-Hydroxysaclofen] the mean [11] was 0.8279 and the Replicate_2 [12] was -0.8627.

Work on `CN1[C@@H](CC(=O)c2ccccc2)CCC[C@H]1C[C@H](O)c1ccccc1.Cl` [alpha-Lobeline hydrochloride] yielded a mean [13] of 1.292, a Replicate_1 [14] of 1.696 and a Replicate_2 [15] of 0.8887.

For `NC(C(=O)O)C(O)C(=O)O` (racemic) [DL-threo-beta-hydroxyaspartic acid], the “mean (LOPAC_screen_w_protease)” value [10] was 2.095, the “Replicate_1 (LOPAC_screen_w_protease)” value [8] was 2.385 and the “Replicate_2 (LOPAC_screen_w_protease)” value [9] was 1.804.

For `Cl.Fc1ccc(C(OCCCc2c[nH]cn2)c2ccc(F)cc2)cc1`, the mean [16] was 2.8, the Replicate_1 [17] was 1.774 and the Replicate_2 [18] was 3.825.

Molecule `C[N+](C)(C)CCCCCCCCCC[N+](C)(C)C.[Br-].[Br-]` [Decamethonium dibromide] has a mean [13] of 1.23, a Replicate_1 [14] of 2.965 and a Replicate_2 [15] of -0.5048.

`COc1cc2nc(N3CCN(C(=O)OCc4ccccc4)C(C(=O)NC(C)(C)C)C3)nc(N)c2cc1OC` [L-765,314] gave a mean [13] of 1.212, a Replicate_1 [14] of 3.331 and a Replicate_2 [15] of -0.9073.

`O=[N+]([O-])c1cccc2cn[nH]c12` [7-Nitroindazole] gave an inhibition at 5 µM [19] of 3.04%, an inhibition at 5 µM [20] of 2.19% and an inhibition at 5 µM [21] of 3.89%.

`N[C@@H](Cn1ccc(=O)[nH]c1=O)C(=O)O` [S(-)-Willardiine] gave a mean [11] of 0.8515, a Replicate_1 [22] of 0.8129 and a Replicate_2 [12] of 0.89.

In the case of `NCCc1c[nH]c2ccc(C(N)=O)cc12.O=C(O)/C=C\C(=O)O` [5-Carboxamidotryptamine maleate], the “mean (LOPAC_screen_w_protease)” value [10] is reported as 1.776, the “Replicate_1 (LOPAC_screen_w_protease)” value [8] is reported as 2.928 and the “Replicate_2 (LOPAC_screen_w_protease)” value [9] is reported as 0.6229.

With `Cc1c(CC(C)(C)C(=O)O)n(Cc2ccc(Cl)cc2)c2ccc(F)cc12` [L-655,240] the “mean (LOPAC_screen_w_protease)” value [7] was 1.677, the “Replicate_1 (LOPAC_screen_w_protease)” value [8] was 2.414 and the “Replicate_2 (LOPAC_screen_w_protease)” value [9] was 0.9392.

With `CCCCc1ccc(C(=O)O)nc1` [Fusaric acid] the inhibition at 5 µM [23] was 2.51%, the inhibition at 5 µM [24] was 3.23% and the inhibition at 5 µM [25] was 1.8%.

For `COc1ccc(OC)c(C(O)C(C)N)c1` (centres unmarked) [Methoxamine hydrochloride], the inhibition at 5 µM [4] was 3.32%, the inhibition at 5 µM [5] was 2.74% and the inhibition at 5 µM [6] was 3.89%.

In the case of `N=C(N)NC(=O)c1nc(Cl)c(N2CCCCCC2)nc1N` [5-(N,N-hexamethylene)amiloride], the mean (sheet LOPAC_screen_w_protease, primary screen with protease, mean of two replicates) is reported as 2.452, the Replicate_1 (sheet LOPAC_screen_w_protease, primary screen with protease, replicate 1) is reported as 2.2643 and the Replicate_2 (sheet LOPAC_screen_w_protease, primary screen with protease, replicate 2) is reported as 2.64.

With `NC(=NCc1ccccc1)NC(=O)c1nc(Cl)c(N)nc1N` [Benzamil hydrochloride] the inhibition at 5 µM [26] was 1.66%, the inhibition at 5 µM [27] was 1.83% and the “mean (LOPAC_screen_w_protease)” value [10] was 1.743.

`O=C(C1CCCCC1)N1CC(=O)N2CCc3ccccc3C2C1` (centres unmarked) [Praziquantel] gave an inhibition at 5 µM [4] of 3.73%, an inhibition at 5 µM [5] of 3.31% and an inhibition at 5 µM [6] of 4.15%.

Molecule `CC(C)[C@H]1CN[C@H](C(=O)O)[C@H]1CC(=O)O` [Dihydrokainic acid] has a mean [11] of 0.7305, a Replicate_1 [22] of 1.689 and a Replicate_2 [12] of -0.2284.

`C1CCc2nnnn2CC1` [Pentylenetetrazole] was tested, and the inhibition at 5 µM [26] was 0.452%, the inhibition at 5 µM [27] was 2.75% and the “mean (LOPAC_screen_w_protease)” value [7] was 1.601.

`COc1ccc2[nH]cc(CCNC(C)=O)c2c1` [Melatonin] gave an inhibition at 5 µM [23] of 2.28%, an inhibition at 5 µM [24] of 3.18% and an inhibition at 5 µM [25] of 1.38%.

Molecule `O=C(Nc1cc(C(=O)Nc2ccc(S(=O)(=O)[O-])cc2S(=O)(=O)[O-])cc(C(=O)Nc2ccc(S(=O)(=O)[O-])cc2S(=O)(=O)[O-])c1)Nc1cc(C(=O)Nc2ccc(S(=O)(=O)[O-])cc2S(=O)(=O)[O-])cc(C(=O)Nc2ccc(S(=O)(=O)[O-])cc2S(=O)(=O)[O-])c1.[Na+].[Na+].[Na+].[Na+].[Na+].[Na+].[Na+].[Na+]` [NF449 octasodium salt] has a mean [1] of 4.044, a Replicate_1 [2] of 4.589 and a Replicate_2 [3] of 3.499.

Molecule `CCNC(=O)[C@H]1O[C@@H](n2cnc3c(NCc4ccccc4)ncnc32)[C@H](O)[C@@H]1O` [N6-Benzyl-5'-N-ethylcarboxamidoadenosine] has a mean [13] of 1.239, a Replicate_1 [14] of -0.1675 and a Replicate_2 [15] of 2.645.

In the case of `NCCc1c[nH]cn1` [Histamine dihydrochloride], the inhibition at 5 µM (read-out: Replicate_1) is reported as 3.24%, the inhibition at 5 µM (read-out: Replicate_2) is reported as -1.24% and the inhibition at 5 µM (read-out: mean) is reported as 1%.

For `OC[C@H]1NC[C@H](O)[C@@H](O)[C@@H]1O` [1-Deoxynojirimycin hydrochloride], the inhibition at 5 µM [19] was 2.78%, the inhibition at 5 µM [20] was 4.02% and the inhibition at 5 µM [21] was 1.54%.

For `COC(=O)C1=C(C)NC(C)=C([N+](=O)[O-])C1c1ccccc1C(F)(F)F` (racemic) [(±)-Bay K 8644], the mean [16] was 3.088, the Replicate_1 [17] was 2.534 and the Replicate_2 [18] was 3.642.

Work on `CN(C)c1ccc(O)c2c1C[C@H]1C[C@H]3[C@H](N(C)C)C(O)=C(C(N)=O)C(=O)[C@@]3(O)C(O)=C1C2=O` [Minocycline hydrochloride] yielded an inhibition at 5 µM (sheet LOPAC_screen_w_protease, LOPAC1280 primary screen with protease, 5 µM compound, mean of the two replicates, read-out: mean) of 5.31%, an inhibition at 5 µM (sheet LOPAC_screen_w_protease, LOPAC1280 primary screen with protease, 5 µM compound, replicate 1, read-out: Replicate_1) of 4.79% and an inhibition at 5 µM (sheet LOPAC_screen_w_protease, LOPAC1280 primary screen with protease, 5 µM compound, replicate 2, read-out: Replicate_2) of 5.84%.

For `CC(C)(C)c1cc(C=C(C#N)C#N)cc(C(C)(C)C)c1O` [Tyrphostin A9], the “mean (LOPAC_screen_w_protease)” value was 2.02, the inhibition at 5 µM (read-out: Replicate_1 (LOPAC_screen_w_protease)) was 2.73% and the inhibition at 5 µM (read-out: Replicate_2 (LOPAC_screen_w_protease)) was 1.31%.

For `Cc1ccc(S(=O)(=O)N[C@@H](CCCCN)C(=O)CCl)cc1.Cl`, the “mean (LOPAC screen with protease)” value (sheet LOPAC_screen_w_protease, primary screen at 5 µM, mean of two replicates) was 20.7427, the “Replicate_1 (LOPAC screen with protease)” value (sheet LOPAC_screen_w_protease, primary screen at 5 µM, replicate 1) was 21.9131 and the “Replicate_2 (LOPAC screen with protease)” value (sheet LOPAC_screen_w_protease, primary screen at 5 µM, replicate 2) was 19.5724.
